The source made the active and inactive calls. The calls are words filed in the database; no cut-off is given here.
Key:
Plasma [1] = assay: Antioxidant activity in human plasma protein assessed as reduction of H2O2-induced oxidation of thiol group at 10 uM incubated for 30 mins by Ellman reagent based spectrophotometry; format: functional, cell-free
Plasma [2] = assay: Antioxidant activity in human plasma protein assessed as reduction of H2O2/Fe2+-induced oxidation of thiol group at 10 uM incubated for 30 mins by Ellman reagent based spectrophotometry; format: functional, cell-free
Plasma [3] = assay: Effect on autoxidation of thiol group in human plasma protein at 0.1 to 100 uM by Ellman reagent based spectrophotometry; format: ADME, cell-free; conditions: dose 0.1-100 µM
Plasma [4] = assay: Effect on auto-carbonylation of human plasma protein at 0.1 to 100 uM; format: ADME, cell-free; conditions: dose 0.1-100 µM
Plasma [5] = assay: Antioxidant activity in human plasma assessed as inhibition of H2O2/[…]-induced lipid peroxidation at 10 uM incubated for 30 mins by TBARS assay; format: functional, cell-free
Plasma [6] = assay: Antioxidant activity in human plasma protein assessed as reduction of H2O2/Fe2+-induced plasma protein carbonylation at 10 uM incubated for 30 mins; format: functional; set-up: scale not given: the % may be the effect or the level left
Plasma [7] = assay: Antioxidant activity in human plasma assessed as inhibition of H2O2-induced lipid peroxidation at 10 uM incubated for 30 mins by TBARS assay; format: functional, cell-free
Plasma [8] = assay: Antioxidant activity in human plasma protein assessed as reduction of H2O2-induced plasma protein carbonylation at 10 uM incubated for 30 mins; format: functional, cell-free

Row | Compound | Activity (Plasma [1]) | Activity (Plasma [2]) | Activity (Plasma [3]) | Activity (Plasma [4]) | inhibition (Plasma [5]) [%] | Activity (Plasma [6]; 0.5 h) [%] | inhibition (Plasma [7]) [%] | Activity (Plasma [8]) | Activity (Plasma [6])
1 | COc1c2cc(c(OC)c1O)Oc1ccc(cc1)CCC(=O)CC/C=C\2 | Active | Active | Non-Toxic | Non-Toxic | – | – | – | – | –
2 | COc1c2cc(c(OC)c1O)Oc1ccc(cc1)[C@@H](O)C[C@H](O)/C=C/C=C/2 | Active | Active | Non-Toxic | Non-Toxic | 25.5 | 65 | 24.2 | Active | –
3 | Oc1ccc2cc1-c1cc(ccc1O)C[C@H](O)[C@H](O)C(O)[C@@H](O)[C@H](O)C2 (some centres undefined) | – | – | – | – | 10.4 | – | 33.6 | – | –
4 | O=C1/C=C/CCc2ccc(O)c(c2)-c2cc(ccc2O)CC1 | Active | Active | Non-Toxic | Non-Toxic | – | – | – | – | –
5 | O=C1[C@@H](O)Cc2ccc(O)c(c2)-c2cc(ccc2O)C[C@@H](O)[C@H](O)[C@H]1O | – | – | – | – | 23.9 | – | 3.8 | – | –
6 | O=C1CCc2ccc(O)c(c2)-c2cc(ccc2O)C[C@@H](O)[C@H](O)C1 | – | – | – | – | 11.2 | – | 3.9 | – | –
7 | O=C1C[C@@H](O)Cc2ccc(O)c(c2)-c2cc(ccc2O)C[C@H](O)[C@H]1O | – | – | – | – | 4.2 | – | 6.2 | – | –
8 | COc1cc(/C=C/C(=O)CC(=O)/C=C/c2ccc(O)c(OC)c2)ccc1O | – | – | – | – | 23.2 | – | 20.6 | – | –
9 | O=C1CCc2ccc(O)c(c2)-c2cc(ccc2O)C[C@H](O[C@@H]2O[C@H](CO)[C@@H](O)[C@H](O)[C@H]2O)C[C@@H]1O | – | – | – | – | 4.8 | – | 3.9 | – | –
10 | COc1c2cc(c(OC)c1O)Oc1ccc(cc1)[C@@H](O)C[C@H](O)CC/C=C/2 | – | – | – | – | 4 | – | 2.7 | – | –
11 | O=C1CCc2ccc(O)c(c2)-c2cc(ccc2O)C[C@H](O)C[C@H]1O | Active | Active | Non-Toxic | Non-Toxic | 34.1 | – | 44.4 | Active | Active
12 | COc1c(O)cc2cc1Oc1ccc(cc1)CC[C@@H](O)/C=C/C=C\2 | Active | Active | Non-Toxic | Non-Toxic | – | – | – | Active | Active
13 | O=C1CCc2ccc(O)c(c2)-c2cc(ccc2O)C[C@H](O)[C@@H](O)[C@@H]1O | Active | Active | Non-Toxic | Non-Toxic | – | – | – | Active | Active
14 | COc1c2cc(c(OC)c1O)Oc1ccc(cc1)CCCC[C@@H](O)/C=C\2 | Active | Active | Non-Toxic | Non-Toxic | – | – | – | Active | Active
15 | COc1c2cc(c(OC)c1O)Oc1ccc(cc1)CC[C@@H](O)/C=C/C=C\2 | Active | Active | Non-Toxic | Non-Toxic | – | 65 | – | Active | –
16 | Oc1ccc2cc1-c1cc(ccc1O)C[C@H](O)[C@@H](O)[C@@H](O)C[C@@H](O)C2 | – | – | – | – | 14.4 | – | 33.3 | – | –
